Results from US20070015733A1, “Aryl Phosphate Derivatives of d4T having Activity Against Resistant HIV Strains” (Parker Hughes Institute, priority 1998, published 2007).
Like-named read-outs stand apart in the source and are kept apart here.

How the values were obtained:
Assay type in all cases: cell-based
HIV-2 (Strain: CBL-20) = test: Inhibition of HIV-2 replication in PBMNC (RT activity); settings: Human immunodeficiency virus 2, read-out: HIV-2 IC50 [RT]
Procedure: (P-AZT) and with AZT. The incubation and analysis methods used were as described above for Example 3.
(§1) Cellular Assays of Anti-HIV Activity and Cytotoxicity. […] Percent viral inhibition was calculated by comparing the RT activity values from the test substance-treated infected cells with RT values from untreated infected cells (i.e., virus controls).

[1] = system: AZT- and NNI-resistant HIV-1 (strain: RTMDR-1); test: Inhibition of RTMDR-1 (HIV-MDR) replication in PBMNC (RT activity)
Procedure: as §1

[2] = system: zidovudine-resistant primary clinical HIV-1 isolates; test: p24 drug susceptibility assay, NRTI-/zidovudine-resistant primary clinical HIV-1 isolates in PBMC; settings: Human immunodeficiency virus 1, PBMC
Procedure: Viruses. […] The HIV-1 strains HTLVIIIB (wildtype RT, NRTI-sensitive, NNRTI-sensitive), A17 (Y181 C mutant, NNRTI-resistant), A17-variant (Y181C+K103N mutant, NNRTI-resistant), and RT-MDR (M41 L, V106N, T215Y; NRTI-resistant, NNRTI-resistant) were also obtained from the AIDS Research and Reference Reagent Program, NIAID.
Antiviral susceptibility assays. Phenotypic drug susceptibility studies of HIV-1 isolates and strains were performed by measuring the production of the p24 gag protein in peripheral blood mononuclear cells (PBMC) from seronegative healthy volunteers in the presence of increasing concentrations of the anti-HIV agent using the quantitative Coulter HIV-1 p24 antigen ezyme immunoassay (EIA) and HIV-1 p24 Antigen Kinetic Standard (Beckman Coulter), as previously described (Uckun, 1998, Antimicrobial Agents and Chemotherapy 37(4): 835-38). Informed consent was obtained from the blood donors according to DHHS guidelines using consent forms approved by the Institutional Review Board. In brief, PBMC were cultured for 72 h in RPMI 1640 medium (Gibco) supplemented with 20% (vol/vol) heat-inactivated fetal bovine serum, 5% human interleukin-2 (Zeptometrix), 2 mM L-glutamine, 25 mM HEPES, 2 g/L NaHCO3, 100 U/ml penicillin/streptomycin (Gibco), 50 μg/ml gentamicin (Gibco), and 5 μg/ml phytohemagglutinin-P (PHA-P) (Sigma) for 24-72 hours prior to exposure to HIV at a multiplicity of infection of 0.001-0.1 during a 1-h adsorbtion period at 37±1° C. in a humidified 5-7% CO2 atmosphere. Subsequently, cells were cultured in 96-well microtiter plates (100 μl/well; 2×10^6 cells/ml, triplicate wells) in the presence of the anti-HIV agents at 6-7 different concentrations ranging from 0.0001 μM to 100 μM, and 25 μL aliquots of culture supernatants were removed from the wells on day 6 after infection for p24 EIA, as previously described (Uckun, 1998, Antimicrobial Agents and Chemotherapy, 37(4):835-38). Controls included uninfected and untreated cells (background control) and infected but untreated (virus control) cells. The p24 EIA utilizes a murine monoclonal antibody to HIV core protein used to coat microwell strips to which the antigen present in the test culture supernatant samples binds. Percent inhibition of viral replication was calculated by comparing the p24 values from the test substance-treated infected cells with p24 values from untreated infected cells (i.e., virus controls). The IC50 values were determined using the Statview statistics program (SAS Institute, Inc.). In parallel, the effects of various treatments on cell viability were also examined as previously described (Uckun, 1998, Antimicrobial Agents and Chemotherapy, 42:383-388). In brief, noninfected PBMC were treated with each compound for 5 days under identical experimental conditions. A microculture tetrazolium assay (MTA) was performed to quantitate cellular proliferation (Uckun, 1998, Antimicrobial Agents and Chemotherapy, 42:383-388).
Phenotypic drug susceptibility studies of HIV-1 isolates and strains were performed by measuring the production of the p24 gag protein in peripheral blood mononuclear cells (PBMC) from seronegative healthy volunteers in the presence of increasing concentrations of the anti-HIV agent using the quantitative Coulter HIV-1 p24 antigen enzyme immunoassay (EIA) and HIV-1 p24 Antigen Kinetic Standard (Beckman Coulter), as previously described. StatView was used in the calculation of the IC50 values from each set of triplicate wells using the linearized form of an exponential equation (lnY=lnb0+b1X; where Y=% inhibition, X=drug concentration). The inhibition constants were log10 transformed to homogenize the variances within each group. […] P-values below 0.05 were deemed significant (JMP Software, SAS).

[3] = system: NRTI-resistant recombinant HIV-1 isolates; test: RT activity assay, multi-NRTI-resistant recombinant HIV-1 clones
[4] = multi-NRTI-resistant clones, IC50 RT

`COC(=O)C(C)NP(=O)(OC[C@@H]1C=C[C@H](n2cc(C)c(=O)[nH]c2=O)O1)Oc1ccc(Br)cc1` (stereo partly shown) [Compound 1c, d4T-5′-[p-bromo-phenylmethoxyalaninyl phosphate]] showed an IC50 (HIV-2 (Strain: CBL-20)) of 400 nM, an IC50 ([1]; Human immunodeficiency virus 1, read-out: HIV-MDR IC50 [RT]) of 20 nM and an IC50 ([1]; Human immunodeficiency virus 1, read-out: IC50 against HIV-MDR) of 20 nM. It also gave an IC50 ([1]; Human immunodeficiency virus 1, read-out: RTMDR-1 IC50 [RT]) of 20 nM, an IC50 ([2]; isolate 92BR019 (D67N, L214F, T215D, K219Q), PBMC) of 2 nM and an IC50 ([2]; isolate BR/92/019, PBMC, p24) of 2 nM. For the same compound, the IC50 ([2]; isolate C140 (M41L, M184V, T215Y), PBMC) was 2.5 nM, the IC50 ([2]; isolate C140, PBMC, p24) was 2.5 nM and the IC50 ([2]; isolate C467-4 (K20R, D67N, K70R, Y188L, T215F, K219Q), PBMC) was 42 nM. It also gave an IC50 ([2]; isolate C467-4, PBMC, p24) of 42 nM, an IC50 ([2]; isolate G190-6, PBMC, p24) of 2.8 nM and an IC50 ([2]; isolate G691-2 (mutations N.D.), PBMC) of 5 nM. The IC50 ([2]; isolate G704-2 (M41L, D67N, K70R, L210W, T215Y), PBMC) was 3.2 nM, the IC50 ([2]; isolate G704-2, PBMC, p24) was 3.2 nM and the IC50 ([2]; isolate G780-1 (M41L, D67N, K70R, T215F, K219Q), PBMC) was 35 nM. The IC50 ([2]; isolate G780-1, PBMC, p24) was 35 nM, the IC50 ([2]; isolate G890-1 (K20R, M41L, D67N, T69N, K70R, L210W, T215Y), PBMC) was 6 nM and the IC50 ([2]; isolate G890-1, PBMC, p24) was 6 nM. The IC50 ([2]; isolate G910-6 (M41L, D67N, K70R, T215Y, K219Q), PBMC) was 2.8 nM, the IC50 ([2]; isolate P798-1 (M41L, T215Y), PBMC) was 7.5 nM and the IC50 ([2]; isolate P798-1, PBMC, p24) was 7.5 nM. The IC50 ([2]; isolate Q252-2 (M41L, L210W, T215Y), PBMC) was 1.9 nM, the IC50 ([2]; isolate Q252-2, PBMC, p24) was 1.9 nM and the IC50 ([2]; isolate R416-10 (M41L, T215Y), PBMC) was 0.2 nM. It also gave an IC50 ([2]; isolate R416-10, PBMC, p24) of 0.2 nM, an IC50 ([2]; isolate S159-2 (M41L, K103N, T215Y), PBMC) of 0.78 nM and an IC50 ([2]; isolate S159-2, PBMC, p24) of 0.8 nM. It also gave an IC50 ([2]; isolate S762-4 (M41L, T215Y), PBMC) of 8 nM, an IC50 ([2]; isolate S762-4, PBMC, p24) of 8 nM and an IC50 ([2]; isolate T156-3 (M41L, E44D, D67N, T69D, L210W, T215Y), PBMC) of 3.3 nM. The IC50 ([2]; isolate T156-3, PBMC, p24) was 3.3 nM, the IC50 ([2]; isolate X165-8 (D67N, T69N, K70R, K103N, Y181C, T215F, K219E), PBMC) was 13 nM and the IC50 ([2]; isolate X165-8, PBMC, p24) was 13 nM. It also gave an IC50 ([2]; isolate X165-9 (K20R, D67N, K103N, T215Y), PBMC) of 2 nM, an IC50 ([2]; isolate X165-9, PBMC, p24) of 2 nM and an IC50 ([2]; isolate X267-1 (L74V), PBMC, p24) of 0.2 nM. For the same compound, the IC50 ([2]; isolate X267-1 (M41L, L74V, L210W, T215Y), PBMC) was 0.15 nM, the IC50 ([2]; isolate X267-2 (M41L, T215Y), PBMC) was 0.18 nM and the IC50 ([2]; isolate X267-2, PBMC, p24) was 0.2 nM. The IC50 ([2]; isolate X267-5 (M41L, F116S, T215Y), PBMC) was 30 nM, the IC50 ([2]; isolate X267-5, PBMC, p24) was 30 nM and the IC50 ([2]; isolate Y270-7 (M41W, Y188L, T215N), PBMC) was 9 nM. For the same compound, the IC50 ([2]; isolate Y270-7, PBMC, p24) was 9 nM, the IC50 ([2]; primary isolate C467-4 (Y188L), Table 14) was 42 nM and the IC50 ([2]; primary isolate S159-2 (K103N), Table 14) was less than 0.1 nM. For the same compound, the IC50 ([2]; primary isolate X165-8 (K103N, Y181C), Table 14) was 13 nM, the IC50 ([2]; primary isolate X165-9 (K103N), Table 14) was 2 nM and the IC50 ([2]; primary isolate Y270-7 (Y188L), Table 14) was 9 nM. The IC50 ([2]; read-out: IC50 (nM), Mean ± SE, All (n = 25) NRTI-resistant HIV-1 isolates, p24) was 13.4 ± 3.2 nM, the IC50 ([2]; read-out: IC50 (nM), Mean ± SE, Group A (n = 19) NRTI-resistant clinical isolates) was 8.9 ± 2.9 nM and the IC50 ([2]; read-out: IC50 (nM), median, All (n = 25)) was 6 nM. It also gave an IC50 ([2]; read-out: IC50 (nM), median, Group A (n = 19)) of 3.2 nM, an IC50 ([2]; read-out: IC50 (nM), range, All (n = 25)) of 0.2 to 57.9 nM and an IC50 ([2]; read-out: IC50 (nM), range, Group A (n = 19)) of 0.2 to 42 nM. The IC50 ([2]; read-out: IC50, μM, Mean ± SE, mean over 20 zidovudine-resistant primary clinical isolates) was 8.7 ± 2.7 nM, the IC50 ([2]; read-out: IC50, μM, Mean ± SE, mean over the NNRTI-resistant primary isolates of Table 14) was 11.2 ± 6.5 nM and the IC50 ([2]; read-out: IC50 range, range over 20 zidovudine-resistant primary clinical isolates) was 1 to 42 nM. It also gave an IC50 ([2]; read-out: average IC50 value, mean over 20 zidovudine-resistant primary clinical isolates) of 8.7 ± 2.8 nM, an IC50 ([2]; read-out: average IC50 value, mean over primary clinical isolates with NNRTI binding pocket mutations) of 11.2 ± 6.5 nM and an IC50 ([2]; read-out: mean IC50 value, NRTI-resistant isolates with 5 thymidine analog mutations (Group 1 in Table 19)) of 10.7 ± 5.1 nM. For the same compound, the IC50 ([2]; read-out: mean IC50 value, isolates with M184V plus multiple thymidine analog mutations (Group 2 in Table 19)) was 17.2 ± 13 nM, the IC50 ([3]; Human immunodeficiency virus 1, read-out: IC50 (nM), RT, recombinant clone 1617-1) was 5.8 nM and the IC50 ([3]; Human immunodeficiency virus 1, read-out: IC50 (nM), RT, recombinant clone 4755-5) was 0.6 nM. For the same compound, the IC50 ([3]; Human immunodeficiency virus 1, read-out: IC50 (nM), RT, recombinant clone 7295-1) was 0.2 nM, the IC50 ([3]; Human immunodeficiency virus 1, read-out: IC50 (nM), RT, recombinant clone 7324-1) was 0.8 nM and the IC50 ([3]; Human immunodeficiency virus 1, read-out: IC50 (nM), RT, recombinant clone 52534-2) was 4.6 nM. For the same compound, the IC50 ([3]; Human immunodeficiency virus 1, read-out: IC50 (nM), RT, recombinant clone 56252-1) was 6.3 nM, the IC50 ([3]; Human immunodeficiency virus 1, read-out: mean IC50, RT, mean over 6 multi-NRTI-resistant clones) was 3.1 ± 1.2 nM and the “logs more potent than lamivudine” value [3, 4] was greater than 3.4 logs. For the same compound, the “logs more potent than zidovudine(AZT)” value [3, 4] was greater than 1.4 logs.
